According to patent publication US20230414764A1, “Template Assembly by Proximity-Enhanced Reactivity via Metabolic Labeling” (The General Hospital Corporation, priority 2020, published 2023):
Values joined by “and” are separate entries in the source; they are usually repeats but may differ in a detail not shown here. Identical values can stand only once.

Columns and labels:
HeLa cells [1] = experiment: Surface template / ligation-template (LT) qPCR assay on azide-labeled HeLa cells; type: cell-based, human; settings: HeLa cells treated with greater than 6 μM of AzNAM
From the text: For example, a nuclease-resistant template (with a 2′-O-methyl RNA backbone) can be modified with a 5′ or 3′ DBCO group, allowing it to specifically react with azides on the surface of metabolically labeled cells. Following this, the template-bearing cells can be treated with two shorter “ligation template” (LT) oligonucleotides each complementary to contiguous regions of the template, and where one of the LT oligonucleotides bears a 5′-phosphate (LT1). After annealing, the 5′-phosphate of LT1 can be ligated with the 3′-hydroxyl on its partner LT (LT2) adjacent on the same template (see, FIG. 16). For this ligation, a ligase enzyme can be used that is compatible with modified nucleic acid backbones, such as Splint® Ligase (New England Biolabs). Since each LT oligonucleotide is also equipped with an additional priming site, the joined LT (1+2) sequence can be amplified by PCR, and can also easily be amenable to quantitation by qPCR. […]
To apply the surface template/LT assay to azide-labeled HeLa cells, cells were treated with several concentrations of AzNAM in 6-well plates at about 80% confluency. After 20 hours, cells were removed from the plate with CellStripper, washed with […] (SF-RPMI), and counted. […]
LT1 and LT2 oligonucleotides complementary to the surface template were added in equimolar quantities to a final concentration of 0.2 pmol/μl. […]

HeLa cells [2] = experiment: Azide metabolic labeling of HeLa cells with AzNAM, reaction with DBCO-FAM, fluorescent plate reader; type: cell-based, human; settings: AzNAM 10-125 μM, 20 hours, DBCO-FAM 10 μM, 96-well plate reader
Procedure: Initially, cells were cultured in a suitable culture vessel such that their level of confluency at the time of addition of the azide-modified sugar, AzNAM, was not more than 80%.
In particular, HeLa cells were plated in 6-well plates (2.5×10^4 cells/well) and incubated for 48 hours in DMEM-10% FBS medium in a standard 5% CO2 atmosphere. Medium from each well was removed, and each well was washed with 2 ml of phosphate buffered saline (PBS), and fresh DMEM-FBS (1 ml) added. Subsequently, varying amounts of AzNAM (solubilized in DMSO) were added to the wells in small (10 μl) volumes to produce the desired final concentrations in the range 10-125 μM (see, FIG. 1). After an additional 20 hours incubation, the medium in each well was removed, and the wells were washed with 2 ml of PBS, followed by addition of 1 ml of PBS. Then, a fluorescent azide reactive molecule, DBCO-FAM (Broadpharm), was directly added to each well to produce a final concentration of 10 μM.
Plates with added DBCO-FAM were protected from bright light and incubated for 1 hour at room temperature. Supernatants in each well were removed, and each well was washed twice with 2 ml of PBS. […] After pelleting and washing in PBS, cells were resuspended in 150 μl of PBS and counted. Defined numbers in 50 μl volumes in a 96-well Blackwell plate (Corning) were assayed for fluorescence in a fluorescent plate reader (Tecan).

HeLa cells [3] = experiment: Flow cytometry of AzNAM-labeled HeLa cells reacted with DBCO-FAM; type: cell-based, human; settings: AzNAM 125 μM, 20 hours, versus cells receiving no azide-modified sugar
Procedure: In separate cultures, HeLa cells were added to wells of a 12-well plate at 10,000 cells/well, and cultured for 72 hours under normal conditions. The wells were washed with 1 ml of PBS, and 0.5 ml of DMEM-10% FBS was added. AzNAM was added to a final concentration of 125 μM, with cells receiving no azide-modified sugar as controls. After 20 hours, cells were harvested with CellStripper (250 μl/well), washed with PBS, and subjected to flow analysis.

[4] = tested on: murine ovarian cancer cell line ID8; experiment: Metabolic labeling (AzNAM/DPEG-FAM) of ID8 cells, flow cytometric analysis; type: cell-based
From the text: For Examples 7-11, metabolic labeling was monitored by treatment of cultured cells with the sugar analog peracetylated N-azidoacetylmannosamine (AzNAM), followed after harvest with treatment with the bifunctional click/fluorescent compound DBCO-PEG3-FAM (DPEG-FAM). Surface azide groups resulting from the metabolic labeling process react with the DBCO group (dibenzocyclooctyne) of DPEG-FAM, and were monitored by flow cytometry.
The murine ovarian cancer cell line ID8 represent an example of a cell type giving a relatively low metabolic labeling response, as assessed by AzNAM/DPEG-FAM as usual, results shown in FIGS. 22A-22D. Subconfluent ID8 cells were treated with or without 100 ng/ml murine interferon-beta (mIFNβ), and then treated with AzNAM and DPEG-FAM in a similar manner as for the Jurkat cells of Examples 7 and 8. […] FIGS. 22A-22D show flow cytometric analysis of murine ID8 cells after treatment with 100 ng/ml murine IFN-beta for 3 days, with addition of 100 μM AzNAM at 22 hr prior to harvest. Cells were treated with DPEG-FAM prior to flow analysis.
The murine-specific STING agonist DMXAA (R&D Systems) was used to test ID8 cells with a similar experimental arrangement as for Example 9. […] FIGS. 24A-24D show flow cytometric analysis of murine ID8 cells after treatment with 20 μM murine STING agonist DMXAA for 3 days, with addition of 100 μM AzNAM at 22 hr prior to harvest. Cells were treated with DPEG-FAM prior to flow analysis.

[5] = tested on: Jurkat cells (human T lymphoma); experiment: Metabolic labeling (AzNAM/DPEG-FAM) of Jurkat cells, flow cytometric analysis; type: cell-based
Procedure: Surface azide groups resulting from the metabolic labeling process react with the DBCO group (dibenzocyclooctyne) of DPEG-FAM, and were monitored by flow cytometry.
22 hr prior to harvest, cell media were supplemented with […] AzNAM or control solvent only (DMSO). After harvest and washing, cells (10^6 cells/ml) were treated with 2 mM DPEG-FAM, washed, and subjected to flow cytometric analysis. […] FIGS. 20A-20D show flow cytometric analysis of human Jurkat cells after treatment with 100 ng/ml human IFN-beta for three days, with addition of 100 μM AzNAM at 22 hr prior to harvest. Cells were treated with DPEG-FAM prior to flow analysis.
FIGS. 21A-21D show flow cytometric analysis of human Jurkat cells after treatment with 75 ng/ml human IFN-beta for 3 days, with addition of 100 μM AzNAM at 22 hr prior to harvest. Cells were treated with DPEG-FAM prior to flow analysis.
FIGS. 23A-23D show flow cytometric analysis of human Jurkat cells after treatment with 50 μM STING agonist 1 (STAG1) for 3 days, with addition of 100 μM AzNAM at 22 hr prior to harvest. Cells were treated with DPEG-FAM prior to flow analysis.

HeLa cells [6] = experiment: Detection of cell-surface template on AzNAM-labeled HeLa cells with bi-labeled FAM complementary probe, flow analysis; type: cell-based, human; settings: AzNAM-treated HeLa cells with surface template; 800 pmol probe, 30 minutes
From the text: Specific cell surface template (positioned by means of click chemical reactions with metabolically derived surface AzNAM; as described in Example 3) can be detected with alternate methods. One such approach uses probe nucleic acid molecules that are complementary to the template of interest, where both 5′- and 3′-ends of such probes are both modified with a fluorescent group, such as FAM.
For example, HeLa cells with surface template of the same sequence as in Example 3 but with a DNA backbone were treated with a 5′/3′ bi-labeled complementary probe of sequence: […] (SEQ ID NO:72). The same cells were also treated with a control bi-labeled scrambled oligonucleotide of sequence CTT […] (SEQ ID NO:73). For treatments, 10^5 washed AzNAM-labeled HeLa cells in 100 μl of serum-free RPMI 1640 medium were incubated with 800 pmol of complementary or scrambled bi-labeled oligonucleotides for 30 minutes at room temperature. Cells were centrifuged (3 minutes at 2000 rpm) and washed once with 500 μl of serum-free RPMI 1640 medium and once with the same volume of PBS. Cells were finally resuspended in 200 μl of PBS and subjected to standard flow analysis.

With `CC(=O)OC[C@H]1OC(OC(C)=O)[C@@H](NC(=O)CN=[N+]=[N-])[C@@H](OC(C)=O)[C@@H]1OC(C)=O` (some centres unmarked) [AzNAM, peracetylated N-azidoacetylmannosamine] the “increase over background in formation of the templated LT product” value (HeLa cells [1]) was “over an order of magnitude”, the cell-associated fluorescence (HeLa cells [2]) was “increased as a function of the levels of AzNAM” and the “flow analysis peak shift” value (HeLa cells [3]) was “marked and well-demarcated peak shifts”. For the same molecule, the “geometric mean fluorescence (GM)” value ([4]; ID8/AzNAM (Ctrl): 100 μM AzNAM at 22 hr prior to harvest, no-treatment control, DPEG-FAM) was 37.68 and 19.14.

For `Cc1ccc2c(=O)c3cccc(CC(=O)O)c3oc2c1C` [DMXAA], the “geometric mean fluorescence (GM)” value ([4]; ID8/AzNAM+DMXAA: 20 μM DMXAA 3 days, 100 μM AzNAM 22 hr prior to harvest) was 33.73, the “geometric mean fluorescence (GM)” value ([4]; ID8/Ctrl+DMXAA: 20 μM DMXAA 3 days, control solvent only) was 1.67 and the “AzNAM/DPEG-FAM response enhancement relative to the untreated value” ([4]; ID8, 20 μM DMXAA 3 days) was 1.8 fold. The “effect on comparably-treated DMSO controls” value ([4]; ID8, 20 μM DMXAA 3 days) was “no effect”.

`O=C(NCc1ccco1)c1ccc2c(c1)N(Cc1c(F)cccc1Cl)C(=O)CS2` [STAG1] was tested, and the “impact on control DMSO-treated cells” value ([5]; Jurkat, 50 μM STAG1 3 days) was “minimal”, the “metabolic labeling enhancement relative to the untreated value” ([5]; Jurkat, 50 μM STAG1 3 days) was 1.2 fold and the “geometric mean fluorescence (GM)” value ([5]; Jurkats/AzNAM+STAG1: 50 μM STAG1 3 days, 100 μM AzNAM 22 hr prior to harvest) was 325.69. The “geometric mean fluorescence (GM)” value ([5]; Jurkats/DMSO+STAG1: 50 μM STAG1 3 days, control solvent only) was 1.47.

With “complementary oligonucleotide: 5′/3′ FAM bi-labeled probe complementary to surface template, SEQ ID NO:72 (DNA TCCAGATGTCTTTGCTTTTCTTCAGGACACA; 5' and 3' FAM labels, chemistry not fully specified)” the “fluorescent peak relative to cells incubated with control scrambled oligonucleotide” value (HeLa cells [6]) was “significantly shifted fluorescent peak”.

B1: mIFNβ: murine interferon-beta (protein, UniProt P01575 22-182, looked up)
Interferon beta: INYKQLQLQERTNIRKCQELLEQLNGKINLTYRADFKIPMEMTEKMQKSYTAFAIQEMLQNVFLVFRNNFSSTGWNETIVVRLLDELHQQTVFLKTVLEEKQEERLTWEMSSTALHLKSYYWRVQRYLKLMKYNSYAWMVVRAEIFRNFLIIRRLTRNFQN
With B1 the “geometric mean fluorescence (GM)” value ([4]; ID8/AzNAM+mIFNβ: 100 ng/ml murine IFN-beta 3 days, 100 μM AzNAM 22 hr prior to harvest) was 80.58, the “geometric mean fluorescence (GM)” value ([4]; ID8/DMSO+mIFNβ: 100 ng/ml murine IFN-beta 3 days, control solvent only) was 16.49 and the “labeling change in control DMSO cells” value ([4]; ID8, 100 ng/ml mIFNβ 3 days) was “much reduced labeling increase”. The “labeling enhancement of AzNAM-treated cells relative to the untreated value” ([4]; ID8, 100 ng/ml mIFNβ 3 days) was 2.1 fold.
